Assay results: patent US20080267948A1, “Croos-B Structure Binding Compounds” (priority 2005, published 2008)
Entries after “also recorded” stand apart in the source; their conditions may differ.

Tests used:
[1] = target: T1, heat-denatured misfolded ovalbumin (DOVA) (Gallus gallus, UniProt P01012); experiment: ELISA binding of tPA to immobilized misfolded ovalbumin after pre-incubation with compounds; design: species or system chicken; conditions: for activity at 500 µg/mL: read-out: % tPA binding (after compound incubation), DOVA; for influence on tPA binding to immobilized misfolded OVA: misfolded OVA first overlayed with compound (concentration series), then tPA
T1 construct: purchased Sigma A5503
T1 sequence (P01012 2-386 limits assumed): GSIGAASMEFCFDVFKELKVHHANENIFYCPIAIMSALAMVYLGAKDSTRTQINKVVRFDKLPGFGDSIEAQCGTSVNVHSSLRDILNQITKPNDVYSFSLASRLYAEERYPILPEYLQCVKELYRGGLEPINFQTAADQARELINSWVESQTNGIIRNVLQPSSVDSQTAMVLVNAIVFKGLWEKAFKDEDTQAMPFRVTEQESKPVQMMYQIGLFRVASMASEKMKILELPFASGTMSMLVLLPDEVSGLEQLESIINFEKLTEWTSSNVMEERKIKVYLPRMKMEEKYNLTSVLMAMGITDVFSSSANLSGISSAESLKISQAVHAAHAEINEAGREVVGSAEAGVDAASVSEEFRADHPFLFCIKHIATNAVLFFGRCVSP
Procedure: (§1) Compounds were now diluted 10× in PBS/0.1% Tween20 (500 μg/ml compound). […] With this approach a further selection of the compounds was achieved. Now, compounds that at least interact with HB-AGE are selected. With the selection, similar binding assays are performed with misfolded OVA and Aβ. Finally, concentration series of the selected compounds are used in the binding studies.

[2] = target: T2, amyloid-β(1-40) E22Q (Homo sapiens, UniProt P05067, E693Q); experiment: ELISA binding of tPA to immobilized Aβ after pre-incubation with compounds; conditions: for % tPA binding (after compound incubation), Aβ: 1 μg/ml coated Aβ first exposed to 500 μg/ml compound, then 80 nM tPA, control = 100
T2 construct: For similar ELISA's with DOVA and Aβ(1-40) E22Q, 1 μg/ml DOVA or Aβ was coated; purchased Peptide facility, Dutch Cancer Institute, Amsterdam; host or cells: synthetic peptide
T2 sequence (P05067 672-711 E693Q): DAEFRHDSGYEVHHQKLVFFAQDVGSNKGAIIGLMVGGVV
Procedure: as §1

[3] = target: T3, Hb-AGE (glucose-6-phosphate modified human haemoglobin) (Homo sapiens, UniProt P68871+P69905); experiment: ELISA binding of tPA to immobilized Hb-AGE, compounds co-incubated with tPA; conditions: compound mixed with tPA, control without compound = 100
T3 construct: purchased Sigma-Aldrich H7379
T3 sequence (P69905 2-142 limits assumed): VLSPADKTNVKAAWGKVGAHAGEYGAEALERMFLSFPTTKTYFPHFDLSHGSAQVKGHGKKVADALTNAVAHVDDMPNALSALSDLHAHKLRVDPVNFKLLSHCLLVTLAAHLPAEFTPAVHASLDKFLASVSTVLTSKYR
T3 sequence (P68871 2-147 limits assumed): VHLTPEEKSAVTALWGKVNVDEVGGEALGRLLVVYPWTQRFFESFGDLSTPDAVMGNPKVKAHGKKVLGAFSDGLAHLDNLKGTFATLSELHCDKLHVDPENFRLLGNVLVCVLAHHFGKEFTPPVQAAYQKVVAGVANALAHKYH
Procedure: The small compound library is depicted in Tables 4-5. […] Binding experiments were performed in single wells per compound, in a duplicate experiment. Binding data obtained with this duplicate experiment was averaged.
• 1. […] Coat buffer in control wells. • 2. wash three times with wash buffer • 3. Block all wells with 300 μl 0.5*recommended concentration Roche blocking reagent for 30 minutes at room temperature, with agitation • 4. wash twice • 5. […] Incubate for 30 minutes at room temperature, with agitation • 7. wash five times with TBS/0.1% Tween20 • 8. […] Incubate for 30 minutes at room temperature, with agitation • 10. wash five times with TBS/0.1% Tween20 • 11. Fill wells with 3000× diluted horse raddish peroxidase-labeled polyclonal rabbit anti-mouse antibody (RAMPO, DAKOCytomation) • 12. Incubate for 20 minutes at room temperature, with agitation • 13. Wash five times with TBS/0.1% Tween20 • 14. Wash twice with PBS • 15. Stain with 100 μl TMB, stop with 50 μl 10% H2SO4 • 16. Read absorbance at 450 nm

[4] = target: T4, ovalbumin (Gallus gallus, UniProt P01012); experiment: Transmission electron microscopy of ovalbumin heated in the presence of small compounds; design: species or system chicken; conditions: 1 mg/ml ovalbumin heated with 1 mg/ml compound
T4 construct: purchased Sigma A5503
T4 sequence (P01012 1-386): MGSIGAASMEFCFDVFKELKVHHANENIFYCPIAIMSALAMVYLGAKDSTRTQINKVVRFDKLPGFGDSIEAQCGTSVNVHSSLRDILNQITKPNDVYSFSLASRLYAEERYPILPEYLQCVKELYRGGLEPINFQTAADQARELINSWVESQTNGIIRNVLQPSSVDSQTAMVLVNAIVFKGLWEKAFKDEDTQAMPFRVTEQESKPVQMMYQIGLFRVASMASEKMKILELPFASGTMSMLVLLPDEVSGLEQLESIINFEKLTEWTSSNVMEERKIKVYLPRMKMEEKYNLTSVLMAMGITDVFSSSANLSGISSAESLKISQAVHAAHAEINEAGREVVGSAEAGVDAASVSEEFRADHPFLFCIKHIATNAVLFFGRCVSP
Procedure: For TEM analyses grids were prepared according to standard procedures. Ovalbumin samples at 1 mg/ml were applied to 100-mesh copper grids with carbon coated Formvar (Merck, Germany), and subsequently washed with PBS and H2O. Grids were applied to droplets of 2% (m/v) methylcellulose with 0.4% (m/v) uranylacetate pH 4. After a 2-minutes incubation grids were dried on a filter. Images were recorded at 80 kV, at suitable magnifications on a JEM-1200EX electron microscope (JEOL, Japan).

[5] = target: T5, Hb-AGE (Homo sapiens, UniProt P68871+P69905); experiment: ELISA binding of tPA to immobilized Hb-AGE after pre-incubation with compounds; conditions: Hb-AGE first overlayed with compound (concentration series), then tPA
T5 construct: purchased Sigma-Aldrich H7379
T5 sequence (P69905 2-142 limits assumed): as the sequence (P69905 2-142 limits assumed) above
T5 sequence (P68871 2-147 limits assumed): as the sequence (P68871 2-147 limits assumed) above
Procedure: Compounds were now diluted 10× in PBS/0.1% Tween20 (500 μg/ml compound). […] With the selection, similar binding assays are performed with misfolded OVA and Aβ. Finally, concentration series of the selected compounds are used in the binding studies.

[6] = target: T6, tPA/plasminogen (Homo sapiens, UniProt P00750); experiment: tPA/plasminogen activation by OVA heated in the presence of compounds (substrate PNAPEP1751); type: biochemical; conditions: 25 μg/ml OVA, 25 μg/ml compound, […] DMSO
T6 construct: purchased Boehringer Ingelheim Actilyse
T6 sequence (P00750 36-562): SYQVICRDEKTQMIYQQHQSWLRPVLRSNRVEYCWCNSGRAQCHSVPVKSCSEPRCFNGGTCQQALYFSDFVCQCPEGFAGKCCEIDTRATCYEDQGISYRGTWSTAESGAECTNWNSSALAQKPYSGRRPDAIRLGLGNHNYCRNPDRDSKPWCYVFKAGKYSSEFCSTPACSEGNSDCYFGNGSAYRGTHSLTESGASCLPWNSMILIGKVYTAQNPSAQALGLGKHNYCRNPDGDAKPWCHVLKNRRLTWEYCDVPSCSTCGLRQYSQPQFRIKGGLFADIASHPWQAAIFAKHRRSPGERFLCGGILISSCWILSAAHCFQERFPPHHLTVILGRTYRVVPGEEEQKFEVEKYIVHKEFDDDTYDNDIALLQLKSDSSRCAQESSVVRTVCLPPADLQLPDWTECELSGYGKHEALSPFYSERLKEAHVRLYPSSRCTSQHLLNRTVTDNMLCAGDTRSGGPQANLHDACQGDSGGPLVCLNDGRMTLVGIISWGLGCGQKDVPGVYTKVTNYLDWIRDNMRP
Procedure: Heated OVA, either in PBS/1% DMSO (positive control), or in the same buffer in the presence of 1 mg/ml of the compounds, was used 40-fold diluted in the assay. Negative control was buffer without OVA. […] In addition, it was assessed whether the compounds interfere with absorbance readings at 405 nm, with converted chromogenic substrate. […] The yellow solution is divided over wells of an ELISA plate. […] Signals are compared and related to the control.

[7] = target: T7, heat-denatured ovalbumin (Gallus gallus, UniProt P01012); experiment: Thioflavin T fluorescence of ovalbumin and small compounds; design: species or system chicken; conditions: 1 mg/ml compound, 1 mg/ml OVA
T7 construct: purchased Sigma A5503
T7 sequence (P01012 1-386): T4 sequence (P01012 1-386)
Procedure: To establish the enhancement of Thioflavin T fluorescence by ovalbumin preparations, 90 μl of 25 μM ThT-solution in 50 mM Glycine buffer (pH 9.0) was added to 10 μl sample in duplicate wells of black 96-wells plates. Heat-denatured ovalbumin at 1 mg/ml in PBS with no addition, DMSO at a final concentration of 1% v/v, or 1 mg/ml of the compounds listed in Table 7, was used. Compound stocks are 100 mg/ml in DMSO. In addition, ovalbumin at 1 mg/ml with the same additions was first heat denatured and subsequently used in the fluorescence assay. Heat denaturation was according to the protocol given above. Fluorescence of duplicates was measured on a Thermo Fluoroskan Ascent 2.5, at 435 nm excitation and 485 nm emission wavelengths.

SMILES | activity at 500 µg/mL [1] | % tPA binding (after compound incubation), Aβ [2] | % tPA binding to Hb-AGE (co-incubation) [3] | other results
CN1CCc2cccc3c2C1Cc1ccc(O)c(O)c1-3 (centres unmarked) [compound 85] | 135% |  |  | 
COc1cc2c(cc1O)-c1c(O)c(OC)cc3c1[C@H](C2)N(C)CC3 [compound 203, Bracteoline] | 105% | 85% | 55% | 
COc1cc2c(cc1OC)-c1c(OC)c(OC)c(CO)c3c1C(C2)N(C)CC3 (centres unmarked) [compound 71] |  |  | 50% | 
Br.CC(=O)N1C=C(C2CCCCN2)CCC1 (centres unmarked) [compound 217, Ammophedrine HBr] |  |  |  | appearance of ovalbumin heated in the presence of compound on TEM image ([4]; HBr): less OVA aggregates after heating in the presence of the; also recorded: Only small amorphous aggregates like Control; influence on tPA binding to immobilized Hb-AGE [5]: Inhibited tPA binding to immobilized misfolded protein (Hb-; influence on tPA binding to immobilized misfolded OVA [1]: Inhibited tPA binding to immobilized misfolded protein (Hb-
COC(=O)[C@H]1[C@H]2C[C@H]3c4[nH]c5ccccc5c4CCN3C[C@@H]2CC[C@@H]1O [compound 126, corynanthine] |  |  |  | appearance of ovalbumin heated in the presence of compound on TEM image [4]: No protein visible; influence on tPA binding to immobilized misfolded OVA [1]: Stimulated tPA binding to immobilized misfolded protein
COc1cc2c(cc1OC)-c1c(OC)c(OC)c(C=O)c3c1[C@H](C2)N(C)CC3 [compound 213, dehydroglaucine derivative] | 105% | 210% | 60% | 
COc1ccc2c(c1O)-c1c(OC)c(OC)cc3c1[C@H](C2)N(C)CC3 [compound 138] | 65% |  | 50% | 
COc1cc2c(Cc3c4c5c(cc(OC)c(OC)c5c5c(OC)c(OC)ccc35)CCN4C)c3c4c(cc(OC)c(OC)c4c2cc1OC)CCN3C [compound 210, dehydroglaucine derivative] | 90% | 30% | 80% | 
Cn1ccc(O)c(C#N)c1=O [compound 51] |  |  |  | influence on tPA/plasminogen activation by OVA pre-heated in the presence of compound [6]: Inhibition of tPA/plasminogen activation by OVA pre-heated; influence on tPA binding to immobilized misfolded OVA [1]: Stimulated tPA binding to immobilized misfolded protein
COc1cc2c(cc1OC)-c1c(OC)c(OC)cc3ccnc(c13)C2=O [compound 204, 7-Oxoglaucine] | 80% | 55% | 70% | 
Cc1ccc(C(=O)[C@@H]2[C@H]3C4COC(O4)C(=O)[C@@H]3[C@H]3C=Cc4ccccc4N32)cc1 (some centres unmarked) [compound 15] |  |  |  | influence on Thioflavin T fluorescence with misfolded OVA [7]: Inhibition on Thioflavin T fluorescence with misfolded OVA; influence on tPA binding to immobilized Aβ ([2]; Aβ first overlayed with compound (concentration series), then tPA): Inhibited tPA binding to immobilized misfolded protein (Aβ)
COc1cc2c(cc1O)CC1c3c(cc(O)c(OC)c3-2)CCN1C (centres unmarked) [compound 53] |  |  | 55% | 
